Measured values taken from US20210038587A1, “METHODS AND COMPOSITIONS FOR TREATING NON-ERK MAPK PATHWAY INHIBITOR-RESISTANT CANCERS” (BIOMED VALLEY DISCOVERIES, INC., priority 2013, published 2021).

Assays:
Experiment in all cases: Reverse Phase Protein Analysis (RPPA)
[1] = test system: HCT116; format: cell-based, human; conditions: % change from DMSO (matched cell line)
Experimental: (§1) Control wells were treated with DMSO at 0.1% (v/v) for 6 hours prior to cell lysate generation. Samples were then analyzed using reverse-phase protein microarray technology (Theranostics Health).
(§2) Cell lines with common alterations in BRAF and RAS were assayed: BRAF^V600E mutant lines A375, Colo205, and HT29; KRAS^G12C-mutant cell line MIAPACa-2; KRAS^G13D-mutant cell line HCT116; and AN3Ca with atypical HRAS^F82L mutation. Changes in protein levels are shown as a percentage change from dimethyl sulfoxide (DMSO)-treated parental control (FIG. 32A and Table 23).

[2] = test system: A375; format: cell-based, human; conditions: % change from DMSO (matched cell line)
Experimental: as §1, §2

[3] = test system: MIAPaCa-2; format: cell-based; conditions: MIAPaca2; % change from DMSO (matched cell line)
[4] = test system: Colo205; format: cell-based, human; conditions: % change from DMSO (matched cell line)

CC(C)Nc1cc(-c2c[nH]c(C(=O)N[C@H](CO)c3cccc(Cl)c3)c2)c(Cl)cn1 [BVD-523]
Avg (4ebp1 T70) [1]: 4.03%
Avg (Akt S473) [1]: −6.14%
Avg (Akt) [1]: 4.41%
Avg (Bad S136) [1]: −11.49%
Avg (Bad S155) [1]: −30.72%
Avg (Bak) [1]: −13.16%
Avg (Bax) [1]: −0.8%
Avg (Bcl 2) [1]: −3.59%
Avg (Bcl2 S70) [1]: −8.23%
Avg (Bcl 2 T56) [1]: −8.36%
Avg (Bim) [1]: 12.44%
Avg (CREB S133) [1]: −30.64%
Avg (Caspase 3 CL D175) [1]: −10.11%
Avg (Caspase 7 Cl D198) [1]: −21.09%
Avg (Chk1) [1]: −11.26%
Avg (Chk1 S345) [1]: −39.65%
Avg (Cyclin D1) [1]: −69.62%
Avg (ERK 1 2) [1]: −29.42%
Avg (ERK 1 2 T202 Y204) [1]: 849.12%
Avg (MAK1 S360) [1]: −13.45%
Avg (Mcl1) [1]: −8.72%
Avg (Raptor S792) [1]: −22.04%
Avg (Raptor) [1]: −7.06%
Avg (Rictor) [1]: −13.05%
Avg (Stat1) [1]: −13.76%
Avg (Stat3) [1]: −5.52%
Avg (bad S112) [1]: −34.27%
Avg (c Fos) [1]: −14.08%
Avg (c Myc) [1]: −11.15%
Avg (mTOR S2448) [1]: −12.78%
Avg (mTOR S2481) [1]: −34.09%
Avg (mTOR) [1]: −11.96%
Avg (p70 S6 Kinase) [1]: −12.86%
Avg (p90 RSK S380) [1]: −31.81%
Avg(S6 Ribo Prot S235 236) [1]: −96.31%
Avg(S6 Ribo Prot S240 244) [1]: −96.26%
Avg(Tuberin TSC2 Y1571) [1]: −29.89%
Avg(p70 S6 Kinase S371 S394) [1]: −16.9%
Avg(p70 S6 Kinase T389 T412) [1]: −28.11%
Avg (4ebp1 T70) [2]: −31.82%
Avg (Akt S473) [2]: 73.07%
Avg (Akt) [2]: −14.03%
Avg (Bad S136) [2]: 12.31%
Avg (Bad S155) [2]: −21.9%
Avg (Bak) [2]: −3.26%
Avg (Bax) [2]: −6.98%
Avg (Bcl 2) [2]: −12.55%
Avg (Bcl2 S70) [2]: −7.91%
Avg (Bcl 2 T56) [2]: −8.54%
Avg (Bim) [2]: 14.57%
Avg (CREB S133) [2]: −12.65%
Avg (Caspase 3 CL D175) [2]: −8.06%
Avg (Caspase 7 Cl D198) [2]: 3.18%
Avg (Chk1) [2]: 16.94%
Avg (Chk1 S345) [2]: −7.43%
Avg (Cyclin D1) [2]: −81.45%
Avg (ERK 1 2) [2]: −22.91%
Avg (ERK 1 2 T202 Y204) [2]: 43.34%
Avg (MAK1 S360) [2]: 3.35%
Avg (Mcl1) [2]: 10.67%
Avg (Raptor S792) [2]: −10.33%
Avg (Raptor) [2]: −7.77%
Avg (Rictor) [2]: −20.11%
Avg (Stat1) [2]: 1.32%
Avg (Stat3) [2]: 6.02%
Avg (bad S112) [2]: −72.37%
Avg (c Fos) [2]: 4.39%
Avg (c Myc) [2]: 2.56%
Avg (mTOR S2448) [2]: −27.87%
Avg (mTOR S2481) [2]: −3.36%
Avg (mTOR) [2]: 0.2%
Avg (p70 S6 Kinase) [2]: −7.6%
Avg (p90 RSK S380) [2]: −71%
Avg(S6 Ribo Prot S235 236) [2]: −95.3%
Avg(S6 Ribo Prot S240 244) [2]: −91.98%
Avg(Tuberin TSC2 Y1571) [2]: −6.32%
Avg(p70 S6 Kinase S371 S394) [2]: −8.58%
Avg(p70 S6 Kinase T389 T412) [2]: −23.79%
Avg (4ebp1 T70) [3]: −9.42%
Avg (Akt S473) [3]: 9.9%
Avg (Akt) [3]: 23.63%
Avg (Bad S136) [3]: −4.12%
Avg (Bad S155) [3]: −5.65%
Avg (Bak) [3]: −15.15%
Avg (Bax) [3]: 23.44%
Avg (Bcl 2) [3]: 5.86%
Avg (Bcl2 S70) [3]: 0.89%
Avg (Bcl 2 T56) [3]: −1.78%
Avg (Bim) [3]: −12.51%
Avg (CREB S133) [3]: −19.26%
Avg (Caspase 3 CL D175) [3]: 22.35%
Avg (Caspase 7 Cl D198) [3]: −6.44%
Avg (Chk1) [3]: −3.51%
Avg (Chk1 S345) [3]: 1.2%
Avg (Cyclin D1) [3]: −37.9%
Avg (ERK 1 2) [3]: −40.33%
Avg (ERK 1 2 T202 Y204) [3]: 209.14%
Avg (MAK1 S360) [3]: −10.72%
Avg (Mcl1) [3]: −7.27%
Avg (Raptor S792) [3]: 5.95%
Avg (Raptor) [3]: 21.15%
Avg (Stat1) [3]: 8.62%
Avg (Stat3) [3]: −1.23%
Avg (bad S112) [3]: −30.29%
Avg (c Fos) [3]: −18.44%
Avg (c Myc) [3]: −8.77%
Avg (mTOR S2448) [3]: −11.73%
Avg (mTOR S2481) [3]: −0.24%
Avg (mTOR) [3]: −3.27%
Avg (p70 S6 Kinase) [3]: −3.59%
Avg (p90 RSK S380) [3]: −35%
Avg(S6 Ribo Prot S235 236) [3]: −79.46%
Avg(S6 Ribo Prot S240 244) [3]: −88.03%
Avg(Tuberin TSC2 Y1571) [3]: 1.7%
Avg(p70 S6 Kinase S371 S394) [3]: −28.27%
Avg(p70 S6 Kinase T389 T412) [3]: −39.23%
Avg (4ebp1 T70) [4]: −36.35%
Avg (Akt S473) [4]: −5.78%
Avg (Akt) [4]: −3.85%
Avg (Bad S136) [4]: 5.05%
Avg (Bad S155) [4]: −18.18%
Avg (Bak) [4]: 3.79%
Avg (Bax) [4]: 0.28%
Avg (Bcl 2) [4]: −0.13%
Avg (Bcl2 S70) [4]: −10.2%
Avg (Bcl 2 T56) [4]: −11.84%
Avg (Bim) [4]: 41.73%
Avg (CREB S133) [4]: −2.67%
Avg (Caspase 3 CL D175) [4]: −3.18%
Avg (Caspase 7 Cl D198) [4]: 6.76%
Avg (Chk1) [4]: −2.86%
Avg (Chk1 S345) [4]: −4.63%
Avg (Cyclin D1) [4]: −23.65%
Avg (ERK 1 2) [4]: −18.83%
Avg (ERK 1 2 T202 Y204) [4]: 14.39%
Avg (MAK1 S360) [4]: 14.69%
Avg (Mcl1) [4]: −2.7%
Avg (Raptor S792) [4]: 0.41%
Avg (Raptor) [4]: −7.14%
Avg (Rictor) [4]: −5.21%
Avg (Stat1) [4]: 0.53%
Avg (Stat3) [4]: −2.58%
Avg (bad S112) [4]: −31.51%
Avg (c Fos) [4]: −12.25%
Avg (mTOR S2448) [4]: −23.51%
Avg (mTOR S2481) [4]: −1.33%
Avg (mTOR) [4]: 12.77%
Avg (p70 S6 Kinase) [4]: 0.14%
Avg (p90 RSK S380) [4]: −50.84%
Avg(S6 Ribo Prot S235 236) [4]: −96.15%
Avg(S6 Ribo Prot S240 244) [4]: −97.33%
Avg(Tuberin TSC2 Y1571) [4]: −3.48%
Avg(p70 S6 Kinase S371 S394) [4]: −18.11%
Avg(p70 S6 Kinase T389 T412) [4]: −36.4%
